Experiments:
Kcc2 gene expression = experiment: Composite ranking from primary and secondary screening; type: cell-based, mouse; conditions: for Total Score: sum of Luciferase, RT-qPCR and Clomeleon scores; for Top 2 Hits: winner = top 2 of each library by total score
Protocol: (§1) The primary screen encompassed three levels of LUC measurements. The first level of screening yielded a total of 137 compounds with cut-off RLU>125% LUC activity. These 137 compounds were subject to second round of screening, which was carried out in duplicate independent assays to yield the top 103 compounds sorted for highest RLU. The 103 compounds were then subjected to a third round of screening carried out in duplicate independent assays to yield the top 40 compounds which were again ranked. The best 22 of these 40 compounds (ranked for highest RLU activity) were subjected to secondary screening: cultured neurons were treated with the 22 compounds; RT-qPCR and Clomeleon imaging methodologies (Yeo et al., 2009, J Neurosci 29: 14652-14662) were used to determine effects of compounds on Kcc2 mRNA expression and [Cl-]i, respectively. Each compound was ranked based on composite scores from primary and secondary screening.
(§2) 1057 compounds were screened and contained in two NCI libraries: NCI compound libraries Natural Products II and Mechanistic Diversity Set II (FIG. 1, Table 2), related to inhibition of growth of malignantly transformed cells. […] Iterative screening followed by measurements of Kcc2 mRNA (RT-qPCR) and intracellular chloride ([Cl-]i) (clomeleon chloride indicator protein) led to decreasing numbers of re confirmed hits, which eventually identified four (4) “winner” compounds listed in the bottom panel of FIG. 1.

[1] = system: intracellular chloride ([Cl-]i) of primary cortical neurons; experiment: Secondary screen: Clomeleon chloride imaging in cultured primary cortical neurons; type: cell-based, mouse; conditions: for Chloride [Cl—]i, value left of '=>': starting value before the arrow; for Chloride [Cl—]i, value right of '=>': value after the arrow (with compound)
Protocol: as §1
(§3) Chloride imaging of primary cultured cortical neurons was conducted as previously described (Kuner and Augustine, 2000, Neuron 27: 447-459; Liedtke et al., 2013, Small (Weinheim an der Bergstrasse, Germany) 9: 1066-1075; Yeo et al., 2009, J Neurosci 29: 14652-14662). A Clomeleon expression plasmid was transfected into primary cortical neurons by electroporation (Amaxa Nucleofector Device). Transfected neurons were verified by yellow fluorescent protein (YFP) fluorescence, and ratiometric images (excitation at λ=434 nm, dual emission at λ=485 and 535 nm; for resting chloride, six stable frames at […] were captured, which were averaged) were acquired using RATIOTOOL program. Calibration of Clomeleon signals (535 nm/485 nm emission ratio) was performed by using tributyltin-nigericin to establish a standard curve, which was then normalized for measured intraneuronal pH to take into account the pH sensitivity of Clomeleon.
as §2

Kcc2 promoter = experiment: Primary screen: luciferase (LUC) activity in primary cortical neurons from Kcc2-LUC transgenic mice; type: cell-based, mouse; conditions: rank score within compound library; compounds 100 nM for 48 h
Protocol: Cell suspension was plated at a density of 1×10^6 cells/ml onto 24-well tissue-culture dishes coated with poly-d-lysine.
LUC activity was then determined for each compound. Culture supernatant was removed and cells were lysed with 150 μl lysis buffer (Targeting Systems CA, USA cat. CLR1). LUC activity was measured with a RedLuciferase Assay kit (Targeting Systems cat. FLAR) according to the manufacturer's instructions. A Veritas microplate luminometer was used to measure luminescence; for each treatment triplicates of 40 μl cell lysates (from each 24-well tissue-culture dish) were used and 25 μl substrate was injected per well. […] Relative Light units (RLU) for each treatment was derived from Light Units (compound treatment)/vehicle treatment (0.5% DMSO).
The primary screen encompassed three levels of LUC measurements. […] Each compound was ranked based on composite scores from primary and secondary screening.

Kcc2 mRNA = experiment: Secondary screen: Kcc2 RT-qPCR in cultured primary cortical neurons; type: cell-based, mouse; conditions: rank score within compound library
Protocol: as §1, with “Each compound was ranked based on composite scores from primary and secondary screening.” left out
Total RNA was isolated from cultured cell samples using Directzol RNA miniprep kit (ZymoResearch). […] Gene expression was assessed by quantitative real-time PCR using 2×SYBR Green Master Mix (Qiagen) and a three-step cycling protocol (anneal at 60° C./elongate at 72° C., denature at 95° C.). […] The amount of target messenger RNA (mRNA) in the experimental group relative to that in the control was determined from the resulting fluorescence and threshold values (Ct) using the […] method. […] was used as a housekeeping gene. […]

neuronal [Cl-]i = experiment: Clomeleon [Cl-]i measurement in rat primary cortical neurons; type: cell-based; conditions: VU0240551 2.5 μM, both vehicle-treated and KP-treated rat neurons
Protocol: as §3
Results represent the average mRNA expression of multiple independent neuronal cultures [n=12 (control), n=4 (0.1 μM KP), n=3 (0.2 μM KP), n=10 (0.5 μM KP). *p<0.05, **p<0.01, ****p<0.0001, one-way ANOVA].
It is shown that KP enhanced Kcc2 gene expression and KCC2 chloride extrusion function with rather rapid kinetics within 3 h time frame.

MCF7 = experiment: MTT cell viability assay; type: cell-based; conditions: KP 100 nM and/or paclitaxel 1 nM or 10 nM, 72 hours
Protocol: (§4) Two commonly used breast cancer cell lines (MCF7 and MDA MB-231) and one melanoma cell line (A375) were used in this study. 100 nM Kenpaullone (KP) and/or 1 nM or 10 nM paclitaxel (Taxol) were administered to the cell lines to test their impact on cell viability. Each bar represents an average of 6 experiments, and error bars represent SEM. Cell line maintenance and MTT cell viability assay were done according to Xiao et al. (2018, BMC Cancer, 18(1): 675). Cell viability was assessed after 72 hours.

A375 = experiment: MTT cell viability assay; type: cell-based; conditions: KP 100 nM and/or paclitaxel 1 nM or 10 nM, 72 hours
Protocol: as §4

MDA MB-231 = experiment: MTT cell viability assay; type: cell-based; conditions: KP 100 nM and/or paclitaxel 1 nM or 10 nM, 72 hours
Protocol: as §4

Compound | Total Score (Kcc2 gene expression) | Chloride [Cl—]i, value left of '=>' [1] [mM] | Chloride [Cl—]i, value right of '=>' [1] [mM] | also measured
Cc1cc(-c2nc3ccccc3s2)ccc1N [4-(1,3-Benzothiazol-2-yl)-2-methylaniline] | 13 | 82 | 38 | 
CC(O)CCC(=O)c1ccoc1 (stereo not shown) [4-Ipomeanol] | 8 | 74 | 32 | 
N=C1N=CN=C2C([C@@H]3O[C@H](CO)[C@@H](O)[C@H]3O)=CN=C12 [9-Deazaadenosine] | 11 | 82 | 40 | 
CC(=O)Nc1ccc(-c2nc3ccccc3s2)cc1 [NSC33006, N-[4-(1,3-benzothiazol-2-yl)phenyl]acetamide] | 5 | 74 | 28 | Top 2 Hits (Kcc2 gene expression): winner
Cc1ccc(NC(=O)c2cccc([N+](=O)[O-])c2O)c(C)c1 [NSC79456, n-(2,4-Dimethylphenyl)-2-hydroxy-3-nitrobenzamide] | 5 | 74 | 24 | Top 2 Hits (Kcc2 gene expression): winner
CC(=O)C1CCCC(=O)/C=C/C(=O)O1 (stereo not shown) [NSC180515, 2-Acetyl-2,3,4,5-tetrahydrooxonine-6,9-dione] | 6 | 68 | 22 | Luciferase Score (triplicates) (Kcc2 promoter): 4; Top 2 Hits (Kcc2 gene expression): winner; RT-qPCR Score (triplicates) (Kcc2 mRNA): 1; Chloride reduction (%) [1]: 32%; Clomeleon Score (duplicates) ([1]; rank score within compound library): 1
Cc1csc(NC(=O)CSc2ccc(-c3ccccc3)nn2)n1 [VU0240551] |  |  |  | [Cl-]i with add-on KCC2-transport blocker (neuronal [Cl-]i): ≥ 120 mM
COc1ccc(C[C@H]2NC[C@H](O)[C@H]2OC(C)=O)cc1 [anisomycine] |  | 75 | 43 | 
C[C@@]12C(=O)OC(=O)[C@]1(C)[C@H]1CC[C@@H]2O1 [cantharidine] |  | 68 | 33 | 
CC1(C)CCC[C@]2(C)C3=C(CC[C@@H]12)C(=O)OC3 [confertifoline] |  | 75 | 42 | 
CC(=O)O[C@H]1C(=O)[C@@]2(C)[C@H]([C@H](OC(=O)c3ccccc3)[C@]3(O)C[C@H](OC(=O)[C@H](O)[C@@H](NC(=O)c4ccccc4)c4ccccc4)C(C)=C1C3(C)C)[C@]1(OC(C)=O)CO[C@@H]1C[C@@H]2O [paclitaxel] |  |  |  | cell viability (MTT) (MCF7): sensitive; cell viability (MTT) (A375): sensitive; cell viability (MTT) (MDA MB-231): sensitive
COc1cc2c3c(c4ccc(OC)c(OC)c4c2cc1OC)CN1CCC[C@H]1C3 [tylocrebrine] |  | 75 | 39 | 

Source: patent publication US20230056189A1, “COMPOSITIONS AND METHODS FOR TREATMENT OF PATHOLOGIC PAIN ASSOCIATED WITH MALIGNANT GROWTH DISORDER” (Duke University, priority 2020, published 2023)
